Data taken from patent US20230233532A1, “SPHINGOSINE-1-PHOSPHATE RECEPTOR 1 AGONIST AND LIPOSOMAL FORMULATIONS THEREOF” (The Penn State Research Foundation, priority 2020, published 2023).
One block for each molecule: values may come before it.

Columns and labels:
HUVEC = HUVEC monolayer model of endothelial gap formation (VE-cadherin staining); type: cell-based, human; conditions: for EC gap formation, screening of inflammatory inhibitors: FIG. 8, 5 μM; for EC gap formation induced by VEGF / EC gap formation induced by IL-8 / EC gap formation induced by BK / EC gap formation, agonist alone: 5 μM; for EC gap formation induced by VEGF: 100 ng/ml VEGF; for EC gap formation induced by IL-8: 150 ng/ml IL-8; for EC gap formation induced by BK: 0.5 μM BK; for EC gap formation, agonist alone: no inflammatory mediator
Protocol: HUVECs were seeded on coverslips coated with fibronectin (Millipore Sigma) and cultured to confluency. […] HUVECs fixed with 2% cold paraformaldehyde (Electron Microscopy Science) and treated with 0.1% triton X-100 (Fisher) were exposed to a human VE-cadherin antibody (Santa Cruz) followed by the secondary antibody conjugated with Alexa488 (Invitrogen). Coverslips were mounted to slides using the antifade mounting medium with DAPI (Vector Laboratories).

S1PR1 = S1PR1 (Homo sapiens, UniProt P21453); experiment: S1P1 GPCR cell-based agonist arrestin biosensor assay (Eurofins DiscoverX); conditions: FIG. 1C
From the text: 4-Phenyl-5-trifluoromethyl-thiophene-2-carboxylic acid (1) was first converted in situ to the corresponding acid chloride by treating with oxalyl chloride in the presence of catalytic N,N-dimethyl formamide. […] The structures of Intermediate 3 and Compound I were characterized on the basis of NMR and mass spectrometry.

[1] = test system: MAPK/ERK, PI3K/AKT, NF-κB and vascular permeability regulation pathways; experiment: Off-target effects on key signaling pathways by western blotting in HUVEC; type: cell-based, human; conditions: versus DMSO control
Protocol: (§1) A monolayer of HUVEC cells following varying treatments were lyzed in RIPA buffer containing protease and phosphatase inhibitors (Pierce Biotechnologies). 20 μg of cell lysate was used for western blotting and probed with antibodies according to the suppliers' recommendations to assess off target effects on several major signaling pathways. Antibodies to p-ERK, ERK, p-PI3K, PI3K, p-FAK, FAK, p-PAK1, PAK1, p-PAK2, PAK2, p-MLC, p-NF-κB, NF-κB were used to probe western blots (Cell Signaling). α-Tubulin (Millipore Sigma) was used as a loading control.

[2] = test system: myosin light chain (MLC) phosphorylation; experiment: Western blotting of MLC phosphorylation in HUVEC; type: cell-based, human
Protocol: as §1

[3] = test system: intact rat mesenteric venules; experiment: Hydraulic conductivity (Lp) in individually perfused rat mesenteric microvessels; type: in vivo
Protocol: Experiments were undertaken on mesenteric venules from female Sprague-Dawley rats (2-3-month old, 220-250 g body weight, Sage Laboratory). Inactin hydrate was used for anesthesia through subcutaneous administration. The initial dosage of inactin was 180 mg/kg body weight and an additional 5 mg/dose given as needed. After the rat reached the appropriate plane of anesthesia, determined by the loss of the toe pinch response and the righting reflex, a midline surgical incision was made in the abdominal wall. A loop of the ileum was gently extended from the abdominal cavity and the mesentery was spread over a pillar attached to an animal tray. The upper surface of the mesentery was continuously perfused with mammalian Ringer's solution at 37° C. All experiments were carried out on venules with diameters ranging between […]. Each experiment was performed on a single vessel with one experiment per animal. Euthanasia was performed through bilateral thoracotomy while animals were under anesthesia. Microvessel permeability was assessed by measuring one of the permeability coefficients, hydraulic conductivity, Lp, using the modified […] technique. The assumptions and limitations of the method have been evaluated in detail (31-33). […] The initial water flux (Jv) per unit area of microvessel wall (S), (Jv/S)0, was calculated from the velocity of the marker cell after the vessel was occluded, the vessel radius, and the length between the marker cell and the occlusion site. Microvessel Lp was calculated from the Starling equation, Lp=(Jv/S)/ΔP, where ΔP represents the pressure difference between the hydrostatic pressure applied to the microvessel and the effective oncotic pressure generated from the albumin in the perfusate, assuming the tissue hydrostatic and oncotic pressures are negligible (31). In each experiment, baseline Lp and the stimulus-induced Lp changes were measured in the same vessel, which allows the changes to be compared with its own control. […]

[4] = test system: S1PR1 in HEK293A-S1P1-GFP cells; experiment: S1PR1 internalization assay; type: cell-based; conditions: 5 μM W146
Protocol: […] cells were plated on collagen-coated coverslips (30). Cells were cultured overnight in DMEM with 2% charcoal-stripped serum. Prior to the experiment, cells were cultured in serum-free DMEM for 1.5 hours.

A375M-GFP melanoma cells = experiment: Experimental lung metastasis model, A375M-GFP; type: in vivo, Athymic Foxn1nu nude mice; conditions: 5 mg/kg intraperitoneally 6, 12 or 18 hours before cells, day 29; control 62
Protocol: […] lacking Compound I (Lipo) vehicle control, for 6, 12 or 18 hours prior to intravenous injection of 1 million A375M-GFP cells through the tail vein. […] For experiments using UACC 903M-GFP and 1205Lu-GFP cells, 15 mg/kg of the nanoliposomal formulation were given 6 hours before cancer cell injection. Body weight was monitored to ensure no significant toxicity during the experimental metastasis assay. On day 29, whole lungs were removed and imaged by fluorescent microscopy to quantify the numbers of metastatic nodules in a double-blinded manner.

Sequence of S1PR1 (P21453 whole entry): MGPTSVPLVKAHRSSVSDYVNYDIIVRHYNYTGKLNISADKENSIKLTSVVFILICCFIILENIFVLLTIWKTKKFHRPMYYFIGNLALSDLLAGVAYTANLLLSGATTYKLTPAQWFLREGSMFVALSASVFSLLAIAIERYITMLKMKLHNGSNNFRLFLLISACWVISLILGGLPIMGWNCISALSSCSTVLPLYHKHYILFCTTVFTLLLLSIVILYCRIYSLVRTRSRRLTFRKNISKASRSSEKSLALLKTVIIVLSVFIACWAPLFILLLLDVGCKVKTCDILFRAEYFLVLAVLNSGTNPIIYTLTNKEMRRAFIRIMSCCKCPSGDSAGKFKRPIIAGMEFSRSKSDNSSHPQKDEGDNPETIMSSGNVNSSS

Structure (SMILES): CC(=O)N1CCN(C(=O)/C=C/c2ccc(Sc3ccccc3C(C)C)c([N+](=O)[O-])c2)CC1 [Compound A286982]
EC gap formation, screening of inflammatory inhibitors (HUVEC): did not decrease EC gap formation

EC50 (S1PR1): 43 nM | MLC phosphorylation induced by MIC-1 and inflammatory mediators ([2]; FIG. 15E): inhibited the MLC phosphorylation
Structure (SMILES): Oc1cccc(-c2noc(-c3cc(-c4ccccc4)c(C(F)(F)F)s3)n2)c1 [Compound I, 3-[5-(4-Phenyl-5-trifluoromethyl-thiophen-2-yl)-[1,2,4]oxadiazol-3-yl]-phenol]
EC gap formation induced by VEGF (HUVEC): reduced the EC gap formation | EC gap formation induced by IL-8 (HUVEC): reduced the EC gap formation | EC gap formation induced by BK (HUVEC): reduced the EC gap formation | EC gap formation, agonist alone (HUVEC): did not affect EC gap formation | EC gap formation, screening of inflammatory inhibitors (HUVEC): inhibited EC gap formation | endothelial gap formation induced by MIC-1 and BK (HUVEC; confluent HUVEC monolayer): inhibited the endothelial gap formation | endothelial gap formation induced by MIC-1 and VEGF (HUVEC; confluent HUVEC monolayer): inhibited the endothelial gap formation | levels or activity of biomarker proteins in signaling pathways (off-target effects) [1]: No significant changes | pMLC levels raised by BK, VEGF or IL-8 ([2]; HUVEC, western blotting): reverse and decrease the pMLC levels | pMLC levels, Compound I alone ([2]; HUVEC, western blotting): did not increase pMLC levels

Structure (SMILES): CCCCCCc1cccc(NC(=O)[C@H](N)CCP(=O)(O)O)c1 [Compound W146]
effect of W146 on Compound I inhibition of BK-mediated EC gap formation (HUVEC; 5 μM W146): blocked the effect of Compound I | effect of W146 on the formulation's inhibition of PAF-induced Lp increase ([3]; W146 10 μM): abolished the effect of the nanoliposomal formulation | effect of W146 on internalization mediated by Compound I and SEW2871 [4]: blocked

Structure (SMILES): COC(=O)c1ccc2c(c1)NC(=O)/C2=C(\Nc1ccc(N(C)C(=O)CN2CCN(C)CC2)cc1)c1ccccc1 [Nintedanib]
EC gap formation, screening of inflammatory inhibitors (HUVEC): did not decrease EC gap formation

Structure (SMILES): O=C(Nc1c(Cl)cncc1Cl)c1ccc(OC(F)F)c(OCC2CC2)c1 [Roflumilast]
EC gap formation, screening of inflammatory inhibitors (HUVEC): did not decrease EC gap formation

Structure (SMILES): FC(F)(F)c1cccc(-c2noc(-c3cc(-c4ccccc4)c(C(F)(F)F)s3)n2)c1 [SEW2871]
EC gap formation induced by VEGF (HUVEC): reduced the EC gap formation | EC gap formation induced by IL-8 (HUVEC): reduced the EC gap formation | EC gap formation induced by BK (HUVEC): reduced the EC gap formation | EC gap formation, agonist alone (HUVEC): did not affect EC gap formation | EC gap formation, screening of inflammatory inhibitors (HUVEC): inhibited EC gap formation | endothelial gap formation induced by MIC-1 and BK (HUVEC; confluent HUVEC monolayer): inhibited the endothelial gap formation | PAF-induced mean Lp ([3]; PAF 10 nM in presence of SEW2871 10 PM (printed), n=6): 1.73±0.15 times that of the control | effect on baseline Lp ([3]; SEW2871 10 PM (printed), perfusion 30 minutes): did not change the baseline Lp | metastatic nodules in the lung (A375M-GFP melanoma cells): 17-27

Structure (SMILES): C=CC[C@@H]1/C=C(\C)C[C@H](C)C[C@H](OC)[C@H]2O[C@@](O)(C(=O)C(=O)N3CCCC[C@H]3C(=O)O[C@H](/C(C)=C/[C@@H]3CC[C@@H](O)[C@H](OC)C3)[C@H](C)[C@@H](O)CC1=O)[C@H](C)C[C@@H]2OC [Tacrolimus]
EC gap formation, screening of inflammatory inhibitors (HUVEC): did not decrease EC gap formation
